Assays:
[1] = In-office laser tooth whitening, desensitizer applied post treatment: tooth sensitivity; format: in vivo, human; conditions: for duration of tooth sensitivity: confirmed by follow up phone calls; for subjects experiencing tooth sensitivity after application of the desensitizer: 5 subjects per group
Excerpt: In-office laser tooth whitening procedure using Biolase EZ lase, 7W diode laser, and the LaserWhite *20 whitening gel kit.
A total of 15 candidates were selected and screened (for the presence of active decay, faulty restorations, cervical abrasion and attrition, enamel cracks) for the whitening procedure.
The arch has been divided in 4 quadrants, K1 (upper right), K2 (upper left), K3 (lower left), K4 (lower right).
The amount of 400 Jules has been applied per quadrant per application, in two separate applications. (total of 800 Jules per quadrant).
The candidates were assigned to 3 groups.
Group 1 is considered the control (C1), receiving desensitizer (post treatment) containing potassium nitrate.
Group 2, a second control group (C2), received as desensitizer (post treatment) stannous fluoride.
Group 3 (C3) received as desensitizer sodium pyruvate 99% in crystalline form. (applied over the gingival, gingival margin and DEJ).

[2] = R. Bünger et al., unpublished observations; cited from earlier work
[3] = Gingival lesions after tooth whitening, treated only with sodium pyruvate; format: in vivo, human
Excerpt: In addition, overall 6 patients presented with gingival lesions, manifested by burning sensation on the gingival margin, and visually expressed by white areas on the gingival margin.

[4] = system: isolated liver mitochondria; conditions: 1 mM pyruvate; cited from earlier work
[5] = system: human and bovine endothelial cells; conditions: cited from earlier work
[6] = system: isolated cardiomyocytes; conditions: 1-10 millimolar; cited from earlier work
[7] = intracoronary; cited from earlier work
[8] = system: mammalian cellular systems; conditions: applied exogenously in concentrations up to about 10 mM, short term studies; cited from earlier work
[9] = system: oxidative stress; conditions: cited from earlier work
[10] = cardioplegia; cited from earlier work
[11] = cited from earlier work

O=[N+]([O-])[O-].[K+] [potassium nitrate]
duration of tooth sensitivity [1]: up to 24 hours
subjects experiencing tooth sensitivity after application of the desensitizer ([1]; end of whitening procedure): 3 out of 5

[13CH3][13C](=O)C(=O)[O-].[Na+] [sodium pyruvate, α-Ketopropionic acid-2,3-13C2 sodium salt]
stability [2]: relative stability
water solubility [2]: high water solubility
duration of tooth sensitivity [1]: ≤ 24 h
subjects experiencing tooth sensitivity after application of the desensitizer ([1]; end of whitening procedure): 1 of 5
burning sensation on the gingival margin ([3]; 6 patients with gingival lesions, treated only with sodium pyruvate): immediate relieve of the burning sensation
visual inspection of the gingiva ([3]; previously discolored (white) site on the gingival margin): normal appearance of the gingiva

CC(=O)C(=O)O [pyruvate]
dissociation of cytochrome C [4]: prevented the dissociation of cytochrome C
expression of antiapoptotic bc1-2 [4]: enhanced expression of antiapoptotic bc1-2
mitochondrial respiration [4]: stabilized respiration
bc1-2/bax ratio ([5]; 30 min pulse of 0.5 mM H2O2): increasing the bc1-2/bax ratio
cellular glutathione pool ([5]; 30 min pulse of 0.5 mM H2O2): stabilizing the cellular glutathione pool
cellular viability and survival ([5]; 30 min pulse of 0.5 mM H2O2): dose-dependently enhanced cellular viability and survival
phosphorylated p38 mitogen activated kinase ([5]; H2O2-treated endothelial cells): prevented the accumulation of phosphorylated p38 mitogen activated kinase
phosphorylation of ERK1/2 ([5]; H2O2-treated endothelial cells): transiently increased phosphorylation of ERK1/2
calcium transients [6]: improves the calcium transients
cytotoxicity [6]: without apparent cytotoxicity
mitochondrial stability and mitochondrial Δϕ [6]: increases mitochondrial stability and mitochondrial Δϕ
efficacy [7]: beneficial efficacy
toxicity [7]: no obvious toxicity
cytotoxicity [8]: virtually no or little cytotoxicity
pyruvate level of optimum efficacy [9]: 2 to 5 mM
pyruvate level required for beneficial effects [9]: ≥ 0.5 mM
mortality and morbidity [10]: reduced mortality and morbidity
rate constant of scavenging of peroxynitrite ([11]; pH 7.4, 37° C.): 88 to 100 mol⁻¹ s⁻¹
reaction with peroxynitrite faster than with H2O2 ([11]; physiological pyruvate anion): about 40 times
speed of reaction with peroxynitrite relative to that with H2O2 ([11]; pyruvate decarboxylates to acetate): about one order of magnitude faster

[F][Sn][F] [stannous fluoride]
duration of tooth sensitivity [1]: over 24 hours
members of the group experiencing tooth sensitivity ([1]; end of whitening procedure): 100%

— patent publication US10226409B2, “Pyruvate and related α-keto carboxylates as novel adjuvants in the treatment of post tooth whitening sensitivity and the tissue protective effect of pyruvate on the oral soft tissue” (priority 2016, dated 2019)
